The record followed here is ChEMBL document CHEMBL1201862, “PubChem BioAssay data set” (2004).

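Dose response: 5 concentrations. Exposure: 48 h. Format: 96-well plates. Endpoint: linear interpolation; highest concentration if not reached. GI50 is the concentration that inhibits growth by half.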 Active and inactive are the calls of the source. Rule as the data show it: active = GI50 up to about 1.1 µM and inactive = higher. Where only a bound is given, the exact number is not on record here.

Among the test systems are NCI-H226; UACC-62; M14; MDA-MB-231; SF-268; T47D; K562; A498; NCI-H460; KM12; HCT-15; Hs-578T; HOP-62; MDA-N; COLO 205; ACHN; DU-145; OVCAR-5; TK-10; CCRF-CEM.
Common to all, as to test: NCI anticancer screen, dose series, 48 h

In the case of `CN(C)c1ccc(/N=N\c2cccc3ccoc23)cc1`, the GI50 in the test with NCI-H226 was > 74.6 µM (inactive); in the test with UACC-62, > 100 µM (inactive); in the test on M14, > 40.8 µM (inactive); with MDA-MB-231, > 76.9 µM (inactive); in the test on SF-268, > 100 µM (inactive); in the test with T47D, 61.7 µM (inactive). The GI50 was 44.8 µM (inactive) in the test on K562; > 100 µM (inactive) with A498; > 73.3 µM (inactive) in the test with NCI-H460; > 73.1 µM (inactive) in the test with KM12; 45.2 µM in the test on HCT-15; > 100 µM (inactive) with Hs-578T. Moreover, the GI50 is > 100 µM (inactive) with HOP-62; > 94.4 µM (inactive) in the test with MDA-N; > 82.8 µM (inactive) in the test with COLO 205; > 100 µM (inactive) in the test with ACHN; > 100 µM (inactive) in the test on DU-145; > 100 µM (inactive) in the test on OVCAR-5. For the same compound, the GI50 in the test with TK-10 was 56.5 µM (inactive); in the test on CCRF-CEM it was > 100 µM (inactive).

Turning to `CN(C)CC1CCC/C(=C\c2ccc(OC(=O)/C=C/c3ccc(Cl)c(Cl)c3)cc2)C1=O` (stereo not given), the GI50 with NCI-H226 was 1.71 µM (inactive); with UACC-62, 12.3 µM (inactive); in the test on M14, 5.68 µM (inactive); in the test with MDA-MB-231, 3.71 µM (inactive); in the test on SF-268, 9.29 µM (inactive); in the test on T47D, 2.44 µM (inactive). Also, the GI50 in the test on K562 is 1.94 µM (inactive); in the test with A498 it was 7.89 µM (inactive); in the test on NCI-H460, 3.86 µM (inactive); in the test on KM12, 1.61 µM (inactive); in the test with HCT-15, 2.45 µM; with Hs-578T, 4.21 µM (inactive). The GI50 in the test on HOP-62 was 2.75 µM (inactive); in the test on MDA-N, 3.37 µM (inactive); in the test with COLO 205 it was 1.83 µM (inactive); in the test on ACHN it was 1.82 µM (inactive); with DU-145, 8.97 µM (inactive); in the test on OVCAR-5, 20.5 µM (inactive). The GI50 is 1.76 µM (inactive) with TK-10 and 0.597 µM (active) with CCRF-CEM.

Turning to `Fc1ccc(/C=C2\COCC3=C2NC(=S)NC3c2ccc(F)cc2)cc1` (stereo not given), the GI50 in the test on NCI-H226 is 21.1 µM (inactive); in the test on UACC-62 it was 17.2 µM (inactive); in the test on M14, 16.4 µM (inactive); in the test on MDA-MB-231, 18.5 µM (inactive); in the test with SF-268 it was 17.7 µM (inactive); with T47D, 26.1 µM (inactive). The GI50 was 19 µM (inactive) with K562; 16 µM (inactive) in the test on A498; 19.8 µM (inactive) in the test with NCI-H460; 24.4 µM (inactive) with KM12; 15.7 µM in the test with HCT-15; 24.8 µM (inactive) in the test on Hs-578T. The GI50 is 17.6 µM (inactive) in the test on HOP-62; 17.6 µM (inactive) in the test with MDA-N; 20.2 µM (inactive) with COLO 205; 37 µM (inactive) in the test on ACHN; 26.5 µM (inactive) in the test with DU-145; 21.1 µM (inactive) in the test on OVCAR-5. For the same compound, the GI50 was 22.1 µM (inactive) with TK-10 and 19 µM (inactive) in the test on CCRF-CEM.

On to `O=[N+]([O-])/C(C(Cl)=C(Cl)Cl)=C(/Sc1ccccc1)N1CCOCC1`, for which the GI50 in the test with NCI-H226 is 11.4 µM (inactive); in the test with UACC-62, 3.62 µM (inactive); with M14 it was 3 µM (inactive); with MDA-MB-231 it was 5.12 µM (inactive); with SF-268 it was 4.46 µM (inactive); with T47D, 3.02 µM (inactive). The GI50 was 1.74 µM (inactive) with K562; 14.6 µM (inactive) in the test with A498; 5.05 µM (inactive) with NCI-H460; 13.4 µM (inactive) in the test on KM12; 3.45 µM with HCT-15; 15.6 µM (inactive) in the test on Hs-578T. Also, the GI50 was 17.5 µM (inactive) with HOP-62; 3.65 µM (inactive) in the test with MDA-N; 3.88 µM (inactive) in the test with COLO 205; 4.82 µM (inactive) in the test on ACHN; 12.6 µM (inactive) in the test on DU-145; 16.4 µM (inactive) in the test on OVCAR-5. The figures for the GI50 in the test on TK-10 and in the test on CCRF-CEM were 6.68 µM (inactive) and 1.83 µM (inactive), respectively.

With `OC(CC(CC(O)(C(F)(F)Cl)C(F)(F)Cl)=NNc1ccccc1)(C(F)(F)Cl)C(F)(F)Cl`, the GI50 was 2.99 µM (inactive) in the test on NCI-H226; 1.66 µM (inactive) with UACC-62; 4.26 µM (inactive) with M14; 2.78 µM (inactive) in the test with MDA-MB-231; 2.55 µM (inactive) with SF-268; 4.11 µM (inactive) in the test on T47D. Further, the GI50 with K562 is > 10 µM (inactive); with A498, 2.54 µM (inactive); with NCI-H460, 3.04 µM (inactive); in the test with KM12, 3.12 µM (inactive); with HCT-15 it was 3.23 µM; in the test with Hs-578T it was 2.45 µM (inactive). Further, the GI50 in the test with HOP-62 is 3.43 µM (inactive); in the test with MDA-N, 2.87 µM (inactive); in the test on COLO 205, 1.91 µM (inactive); in the test on ACHN, 2.79 µM (inactive); in the test on DU-145 it was 3.3 µM (inactive); in the test on OVCAR-5, 3.66 µM (inactive). Besides, the GI50 in the test on TK-10 is 3.88 µM (inactive); in the test with CCRF-CEM it was > 10 µM (inactive).

For the compound `Cc1c(/N=N/c2ccccc2)c(-c2ccccc2)n(C2OC(CO)C(O)C(O)C2O)c(=S)c1C#N` (stereo not given), the GI50 was 10.8 µM (inactive) in the test on NCI-H226; 3.6 µM (inactive) in the test on UACC-62; 6.5 µM (inactive) in the test with M14; 10 µM (inactive) in the test with MDA-MB-231; 8.38 µM (inactive) in the test with SF-268; 0.245 µM (active) in the test on T47D. For the same compound, the GI50 is 3.21 µM (inactive) in the test on K562; 14.4 µM (inactive) in the test with A498; 10.6 µM (inactive) in the test with NCI-H460; 2.98 µM (inactive) in the test with KM12; 5.01 µM with HCT-15; 2.86 µM (inactive) in the test on Hs-578T. Also, the GI50 in the test with HOP-62 was 7.14 µM (inactive); with MDA-N, 4.71 µM (inactive); with COLO 205, 5.56 µM (inactive); with ACHN it was 3.95 µM (inactive); with DU-145 it was 6.17 µM (inactive); in the test on OVCAR-5, 13.8 µM (inactive). For the same compound, the GI50 is 9.29 µM (inactive) with TK-10 and 2.32 µM (inactive) with CCRF-CEM.

`CC1=NC(C)(COC(=O)C2(C)NC(C)(CO)CO2)COC1=O` (stereo not given): the GI50 in the test on NCI-H226, in the test on UACC-62, with M14, in the test on MDA-MB-231, in the test on SF-268 and in the test on T47D was > 100 µM (inactive) each time. Further, the GI50 is > 100 µM (inactive) in the test on K562; > 100 µM (inactive) in the test with A498; > 100 µM (inactive) in the test with NCI-H460; > 100 µM (inactive) in the test with KM12; more than 100 µM in the test on HCT-15; > 100 µM (inactive) in the test on Hs-578T. For the same compound, the GI50 in the test on HOP-62, in the test on MDA-N, with COLO 205, in the test on ACHN, in the test with DU-145 and in the test with OVCAR-5 was > 100 µM (inactive) each time. The GI50 is > 75 µM (inactive) in the test on TK-10 and > 100 µM (inactive) with CCRF-CEM.

In the case of `O=c1[nH]c(=O)c2c3n(cc2[nH]1)CCCCC3`, the GI50 in the test on NCI-H226 was > 100 µM (inactive); with UACC-62 it was > 100 µM (inactive); in the test with M14, > 100 µM (inactive); in the test on MDA-MB-231 it was 64.4 µM (inactive); in the test with SF-268, > 100 µM (inactive); in the test on T47D it was > 100 µM (inactive). The GI50 was > 100 µM (inactive) in the test with K562; > 100 µM (inactive) in the test with A498; > 100 µM (inactive) in the test on NCI-H460; > 100 µM (inactive) in the test with KM12; more than 100 µM with HCT-15; > 100 µM (inactive) with Hs-578T. In addition, the GI50 in the test on HOP-62, in the test with MDA-N, in the test on COLO 205, with ACHN, in the test on DU-145 and in the test with OVCAR-5 was > 100 µM (inactive) in each case. For the same compound, the GI50 with TK-10 is 17.5 µM (inactive); with CCRF-CEM, > 100 µM (inactive).

Take `Clc1ccc(C2c3ccccc3-c3nc4ccccc4n32)cc1` (stereo not given): the GI50 with NCI-H226 was > 42.5 µM (inactive); with UACC-62 it was 26.3 µM (inactive); in the test on M14 it was 31.8 µM (inactive); with MDA-MB-231, > 84.1 µM (inactive); with SF-268, 25 µM (inactive); with T47D, > 27.2 µM (inactive). The GI50 is > 22.4 µM (inactive) in the test with K562; 25.1 µM (inactive) with A498; 19.7 µM (inactive) with NCI-H460; 13 µM (inactive) in the test on KM12; 17.3 µM with HCT-15; 4.92 µM (inactive) with Hs-578T. The GI50 with HOP-62 was 16.9 µM (inactive); in the test on MDA-N it was 51.3 µM (inactive); in the test with COLO 205, > 61.2 µM (inactive); in the test on ACHN it was 23 µM (inactive); in the test on DU-145, 58.2 µM (inactive); in the test on OVCAR-5, 25.4 µM (inactive). The GI50 is > 66.7 µM (inactive) with TK-10 and 17.9 µM (inactive) with CCRF-CEM.

For the compound `Cc1ccc(C(=O)/C=C2/Nc3ccc([N+](=O)[O-])cc3N/C2=C/C(=O)c2ccc(C)cc2)cc1`, the GI50 is > 100 µM (inactive) in the test with NCI-H226; 24.7 µM (inactive) in the test on UACC-62; > 100 µM (inactive) in the test with M14; 29.1 µM (inactive) with MDA-MB-231; 52.4 µM (inactive) with SF-268; > 100 µM (inactive) in the test on T47D. The GI50 in the test with K562 was 85.5 µM (inactive); with A498, 44.7 µM (inactive); in the test on NCI-H460, > 100 µM (inactive); in the test on KM12, > 100 µM (inactive); in the test with HCT-15, 90.8 µM; with Hs-578T, 23.2 µM (inactive). The GI50 is 15.3 µM (inactive) in the test on HOP-62; > 100 µM (inactive) in the test on MDA-N; > 100 µM (inactive) in the test with COLO 205; 37.5 µM (inactive) in the test with ACHN; > 100 µM (inactive) with DU-145; > 100 µM (inactive) in the test on OVCAR-5. The values for the GI50 in the test with TK-10 and with CCRF-CEM were > 100 µM (inactive) and 88.3 µM (inactive), respectively.
